Assay results from patent US9845330B2, “6-nitro-2,3-dihydroimidazo[2,1-b]oxazoles and a process for the preparation thereof” (priority 2013, dated 2017).
Values after ≈ are worked out from the molar mass of the structure shown. Where two headings read alike, the source gives them in different places.

Assays:
Type in all cases: cell-based
[1] = test system: macrophage J774 cells line; experiment: Cytotoxicity assay (MTT) in macrophage J774 cells; settings: J774 cells, 24 hrs, MTT
Procedure, shortened: (§1)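 J774 cells seeded at 3×10^4 cells/cm^2 in RPMI with FCS reduced to 5%, then exposed to compounds at 40 μg/ml for 24 hrs. MTT reduction read at 450 nm; percentage cytotoxicity calculated relative to untreated cells.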

[2] = Cytotoxicity assay (MTT) in macrophage J774 cells; settings: mouse, J774 macrophage cells; also called safety index
Procedure, shortened: as §1

[3] = test system: M. tuberculosis H37Rv (ATCC 27294); experiment: MIC by broth dilution method, M. tuberculosis H37Rv; settings: Mycobacterium tuberculosis
[4] = 504 h, broth dilution, 3 weeks, read-out: MIC M. tb H37Rv
[5] = read-out: MIC value, text summary: sensitive H37Rv as well as MDR and XDR strains of M. tuberculosis

SMILES | Cytotoxicity [1] [µg/mL] | selectivity ratio at 24 h, 40 μg/ml [2] | MIC [3, 4] [µg/mL] | MIC ([3]; 504 h, read-out: MIC M. tb H37Rv, broth dilution, 3 weeks) [µg/mL] | MIC [3, 5] [µg/mL]
C[C@]1(COc2ccccc2-n2cc(COc3ccccc3F)nn2)Cn2cc([N+](=O)[O-])nc2O1 [IA42] | >40 | > 10 | 2 (≈ 4.29 µM) |  | 
C[C@]1(COc2ccc(-c3cc(-c4ccccc4)on3)cc2)Cn2cc([N+](=O)[O-])nc2O1 [IC1, (R)-2-{4-[5-phenylisoxazol-3-yl]phenoxymethyl}-2,3-dihydro-2-methyl-6-nitroimidazo[2,1-b]oxazole] | >40 | > 10 |  | 0.06 (≈ 0.143 µM) | < 1
CCc1ccc(-c2cc(-c3ccc(OC[C@@]4(C)Cn5cc([N+](=O)[O-])nc5O4)cc3)no2)cc1 [IC2, (R)-2-{4-[5-(4-ethylphenyl)isoxazol-3-yl]phenoxymethyl}-2,3-dihydro-2-methyl-6-nitroimidazo[2,1-b]oxazole] | >40 | > 10 | 2 (≈ 4.48 µM) |  | 
C[C@]1(COc2ccc(-c3cc(-c4ccc(F)cc4F)on3)cc2)Cn2cc([N+](=O)[O-])nc2O1 [IC3, (R)-2-{4-[5-(2,4-difluorophenyl)isoxazol-3-yl]phenoxymethyl}-2,3-dihydro-2-methyl-6-nitroimidazo[2,1-b]oxazole] | >40 | > 10 | 0.25 (≈ 0.55 µM) |  | < 1
C[C@]1(COc2ccc(-c3cc(-c4ccccc4F)on3)cc2)Cn2cc([N+](=O)[O-])nc2O1 [IC4, (R)-2-{4-[5-(2-fluorophenyl)isoxazol-3-yl]phenoxymethyl}-2,3-dihydro-2-methyl-6-nitroimidazo[2,1-b]oxazole] | >40 | > 10 | 2 (≈ 4.58 µM) |  | 
C[C@]1(COc2ccc(-c3cc(-c4ccc(C(F)(F)F)cc4)on3)cc2)Cn2cc([N+](=O)[O-])nc2O1 [IC5, (R)-2-{4-[5-(4-trifluoromethylphenyl)isoxazol-3-yl]phenoxymethyl}-2,3-dihydro-2-methyl-6-nitroimidazo[2,1-b]oxazole] | >40 | > 10 | 1 (≈ 2.06 µM) |  | 
Cc1ccc(-c2cc(-c3ccc(OC[C@@]4(C)Cn5cc([N+](=O)[O-])nc5O4)cc3)no2)cc1 [IC6, (R)-2-{4-[5-(4-methylphenyl)isoxazol-3-yl]phenoxymethyl}-2,3-dihydro-2-methyl-6-nitroimidazo[2,1-b]oxazole] | >40 | > 10 | 1 (≈ 2.31 µM) |  | 
COc1ccc(-c2cc(-c3ccc(OC[C@@]4(C)Cn5cc([N+](=O)[O-])nc5O4)cc3)no2)cc1 [IC7, (R)-2-{4-[5-(4-methoxyphenyl)isoxazol-3-yl]phenoxymethyl}-2,3-dihydro-2-methyl-6-nitroimidazo[2,1-b]oxazole] | >40 | > 10 | 0.5 (≈ 1.11 µM) |  | < 1
C[C@]1(COc2ccc(-c3cc(-c4ccc(OC(F)(F)F)cc4)on3)cc2)Cn2cc([N+](=O)[O-])nc2O1 [IC10, (R)-2-{4-[5-(4-trifluoromethoxyphenyl)isoxazol-3-yl]phenoxymethyl}-2,3-dihydro-2-methyl-6-nitroimidazo[2,1-b]oxazole] | >40 | > 10 | 0.5 (≈ 0.995 µM) |  | < 1
CCCCCc1cc(-c2ccc(OC[C@@]3(C)Cn4cc([N+](=O)[O-])nc4O3)cc2)no1 [IC11, (R)-2-{4-[5-pentylisoxazol-3-yl]phenoxymethyl}-2,3-dihydro-2-methyl-6-nitroimidazo[2,1-b]oxazole] | >40 | > 10 | 32 (≈ 77.6 µM) |  | 
CCCCCCCc1cc(-c2ccc(OC[C@@]3(C)Cn4cc([N+](=O)[O-])nc4O3)cc2)no1 [IC12, (R)-2-{4-[5-heptylisoxazol-3-yl]phenoxymethyl}-2,3-dihydro-2-methyl-6-nitroimidazo[2,1-b]oxazole] | >40 | > 10 | 2 (≈ 4.54 µM) |  | 
C[C@]1(COc2ccc(-c3cc(COc4ccc(C(F)(F)F)cc4)on3)cc2)Cn2cc([N+](=O)[O-])nc2O1 [IC15, (R)-2-{4-[5-(4-trifluoromethylphenoxymethyl)isoxazol-3-yl]phenoxymethyl}-2,3-dihydro-2-methyl-6-nitroimidazo[2,1-b]oxazole] | >40 | > 10 | 0.25 (≈ 0.484 µM) |  | < 1
C[C@]1(COc2ccc(-c3cc(COc4ccccc4F)on3)cc2)Cn2cc([N+](=O)[O-])nc2O1 [IC16, (R)-2-{4-[5-(2-fluorophenoxymethyl)isoxazol-3-yl]phenoxymethyl}-2,3-dihydro-2-methyl-6-nitroimidazo[2,1-b]oxazole] | >40 | > 10 | 0.5 (≈ 1.07 µM) |  | < 1
Cc1ccc(OCc2cc(-c3ccc(OC[C@@]4(C)Cn5cc([N+](=O)[O-])nc5O4)cc3)no2)cc1 [IC17, (R)-2-{4-[5-(4-methylphenoxymethyl)isoxazol-3-yl]phenoxymethyl}-2,3-dihydro-2-methyl-6-nitroimidazo[2,1-b]oxazole] | >40 | > 10 | 0.5 (≈ 1.08 µM) |  | < 1
CC(C)c1ccc(OCc2cc(-c3ccc(OC[C@@]4(C)Cn5cc([N+](=O)[O-])nc5O4)cc3)no2)cc1 [IC18, (R)-2-{4-[5-(4-isopropylphenoxymethyl)isoxazol-3-yl]phenoxymethyl}-2,3-dihydro-2-methyl-6-nitroimidazo[2,1-b]oxazole] | >40 | > 10 | 0.25 (≈ 0.51 µM) |  | < 1
C[C@]1(COc2ccc(-c3cc(COc4ccc(F)cc4F)on3)cc2)Cn2cc([N+](=O)[O-])nc2O1 [IC22, (R)-2-{4-[5-(2,4-difluorophenoxymethyl)isoxazol-3-yl]phenoxymethyl}-2,3-dihydro-2-methyl-6-nitroimidazo[2,1-b]oxazole] | >40 | > 10 | 0.12 (≈ 0.248 µM) |  | < 1
C[C@]1(COc2ccc(NC(=O)Nc3ccc(F)cc3)cc2)Cn2cc([N+](=O)[O-])nc2O1 [IIA1, (R)-1-(4-fluorophenyl)-3-{4-(2-methyl-6-nitro-2,3-dihydroimidazo[2,1-b]oxazol-2-yl)methoxyphenyl}urea] | >40 | > 10 | 2 (≈ 4.68 µM) |  | 
CCc1ccc(NC(=O)Nc2ccc(OC[C@@]3(C)Cn4cc([N+](=O)[O-])nc4O3)cc2)cc1 [IIA2, (R)-1-(4-ethylphenyl)-3-{4-(2-methyl-6-nitro-2,3-dihydroimidazo[2,1-b]oxazol-2-yl)methoxyphenyl}urea] | >40 | > 10 | 0.5 (≈ 1.14 µM) |  | < 1
Cc1ccc(NC(=O)Nc2ccc(OC[C@@]3(C)Cn4cc([N+](=O)[O-])nc4O3)cc2)cc1 [IIA4, (R)-1-(4-methylphenyl)-3-{4-(2-methyl-6-nitro-2,3-dihydroimidazo[2,1-b]oxazol-2-yl)methoxyphenyl}urea] | >40 | > 10 | 0.06 (≈ 0.142 µM) |  | < 1
